Laboratory results published in patent publication US8895695B2, “Template-fixed beta-hairpin peptidomimetics with CXCR4 antagonizing activity” (priority 2003, dated 2014).
Bridge positions count the residues as written; N and C are the ends. Square brackets hold non-standard residues; d marks the D form. Peptide text beside a SMILES is read from it. 2Nal = N[C@@H](Cc1ccc2ccccc2c1)C(=O)O; Cit = NC(=O)NCCC[C@H](N)C(=O)O

Experiments:
[1] = system: human red blood cells (hRBC); assay: Hemolysis; type: cell-based
Summary of the method: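 Percent lysis taken as OD540 of peptide-treated sample over OD540 of the water/0.1% Triton X-100 full-lysis control, with PBS giving 0%. Peptides at 100 μM exposed to PBS-washed human RBCs (20% v/v) for 1 hour at 37° C. before centrifugation and 20-fold dilution of supernatant.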

in vitro [2] = details: human; for CC50 at 48 h: HELA cells (Acc57)
CXCR4 [3] = biological target: T1, CXCR4 (Homo sapiens, UniProt P61073); assay: Ca2+-assay method 1: CXCR4-antagonizing activity; type: cell-based; set-up: expressed in transfected cells; details: method 1 (Ex. 1-53), CXCR4 transfected pre-B cells, Fura-2; read-out: IC50 (nM) Ca^2+ assay
T1 sequence (P61073 whole entry): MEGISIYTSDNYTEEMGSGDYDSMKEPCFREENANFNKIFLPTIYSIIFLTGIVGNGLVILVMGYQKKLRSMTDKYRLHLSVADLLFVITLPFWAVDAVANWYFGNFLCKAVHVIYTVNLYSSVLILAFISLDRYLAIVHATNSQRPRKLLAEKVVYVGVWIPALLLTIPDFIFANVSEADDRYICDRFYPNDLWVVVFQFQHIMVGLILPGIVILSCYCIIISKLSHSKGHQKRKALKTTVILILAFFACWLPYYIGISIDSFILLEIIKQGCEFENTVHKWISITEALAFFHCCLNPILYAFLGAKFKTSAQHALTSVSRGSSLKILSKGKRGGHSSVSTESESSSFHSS
Method: 2.2. Ca^2+-Assay: CXCR4-Antagonizing Activity of the Peptides.
The cells were washed free from Fura-2-AM with a platelet centrifuge and resuspended in 800 μl MSB containing 5 mM D-Glucose. The peptides to be administered were diluted to a 100 fold end concentration in MSB/0.2% PPL, and 8 μl were injected. […] Measurements were done under continuous stirring at 37° C. The signal intension was calibrated with 3 mM CaCl2/[…] lonomycin (maximal fura-2-acetoxymethylester saturation) and 10 μM MnCl2 (minimal Fura-2-acetoxymethylester saturation) and [Ca^2+]i-changes are presented in % fora-2-acetoxymethylester saturation. The rate of [Ca^2+]i-changes was calculated on the basis of the initial [Ca^2+]i-changes and plotted in dependence of chemokine concentration to obtain a sigmoidal curve and to determine the IC50 values.
Osmolarity: 310 mOsm adjusted with NaOH or HCl, adjusted with H2O or PBS.
MSB plus: 5 mM D-glucose in MSB (50 mg/50 mL).
Fura 2-acetoxymethylester: 1 mM stock solution in dimethylsulfoxide.

in vitro [4] = type: in vitro ADME; details: plasma
Method: 405 μl of plasma/albumin solution were placed in a polypropylene (PP) tube and spiked with 45 μl of compound from a 100 μM solution B, derived from 135 μl of PBS and 15 μl of 1 mM peptide in PBS, pH 7.4. 150 μl aliquots were transferred into individual wells of the 10 kDa filter plate (Millipore MAPPB 1010 Biomax membrane). For “0 minutes controls”: 270 μl of PBS were placed in a PP tube and 30 μl of stock solution B was added and vortexed. 150 μl of control solution was placed into one well of the filter plate and serves as “filtered control”.
Further 150 μl of control solution were placed directly into a receiver well (reserved for filtrate) and serve as “not-filtered control”. The entire plate including evaporation lid was incubated for 60 min at 37° C. Plasma samples (rat plasma: Harlan Sera lab UK, human plasma: Blutspendezentrum Zürich) were centrifuged at least for 2 h at 4300 rpm (3500 g) and 15° C. in order to yield 100 μl filtrate. For “serum albumin”-samples (freshly prepared human albumin: Sigma A-4327, rat albumin: Sigma A-6272, all at 40 mg/ml concentration in PBS) approximately 1 hour of centrifugation is sufficient. The filtrates in the receiver PP plate were analysed by LC/MS as followes: Column: Jupiter C18 (Phenomenex), mobile phases: (A) 0.1% formic acid in water and (B) acetonitrile, gradient: 5%-100% (B) in 2 minutes, electrospray ionization, MRM detection (triple quadrupole). The peak areas were determined and triplicate values are averaged. The binding is expressed in percent of the (filtered and not-filtered time point 0 min) control 1 and 2 by: 100−(100*T60/T0). The average from these values is then calculated (see ref. 9 below).

CXCR4 [5] = biological target: T1, CXCR4; assay: Ca2+-assay method 2 (Flexstation, SDF-1 induced calcium mobilization); type: cell-based; set-up: expressed in transfected cells; host or cells: mouse pre-B cell line 300-19; details: method 2 (Ex. 54-160), mouse pre-B cell line 300-19 with human CXCR4, 10 nM SDF-1; read-out: IC50 (nM) Ca^2+ assay
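Wherever CC50 is given: MTT reduction read as absorbance at 595 nm, blank-corrected and expressed as percent growth relative to the time-zero cell reading, triplicate wells per concentration.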
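Wherever GI50 is given: MTT reduction read as absorbance at 595 nm, blank-corrected and expressed as percent growth relative to the time-zero cell reading, triplicate wells per concentration.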

Compound	Hemolysis at 100 μM [1] [%]	CC50 at 48 h (in vitro [2]) [µM]	IC50 (CXCR4 [3]) [nM]	half-life at 10 μM (in vitro [4]; human) [h]	half-life at 10 μM (in vitro [4]; rat) [h]	GI50 at 48 h (in vitro [2]) [µM]	IC50 (CXCR4 [5]) [nM]
CC(C)[C@@H]1NC(=O)[C@H](CCCNC(N)=O)NC(=O)[C@H](CCCNC(=N)N)NC(=O)[C@H](Cc2ccc(O)cc2)NC(=O)[C@@H]2CCCN2C(=O)[C@H]2CCCN2C(=O)[C@H](CCCCN)NC(=O)[C@H](CCCNC(N)=O)NC(=O)[C@H](Cc2ccc(O)cc2)NC(=O)[C@H](Cc2ccccc2)NC(=O)[C@H](Cc2ccc3ccccc3c2)NC(=O)[C@H](CCCNC(=N)N)NC(=O)[C@H](CCCNC(=N)N)NC(=O)[C@@H]2CCCN2C(=O)[C@H](CCCNC(N)=O)NC(=O)[C@H](CCCNC(=N)N)NC1=O [compound 31] (cyclo(YR[Cit]VR[Cit]PRR[2Nal]FY[Cit]K[dP]P))	0.1	82	1470				
CC(C)[C@@H]1NC(=O)[C@H](CCCNC(N)=O)NC(=O)[C@H](CCCNC(=N)N)NC(=O)[C@H](Cc2ccc(O)cc2)NC(=O)[C@@H]2CCCN2C(=O)[C@H]2CCCN2C(=O)[C@H](CCCCN)NC(=O)[C@H](CCCNC(N)=O)NC(=O)[C@H](Cc2ccc(O)cc2)NC(=O)[C@H](C(C)C)NC(=O)[C@H](Cc2ccc3ccccc3c2)NC(=O)[C@H](CCCNC(=N)N)NC(=O)[C@H](CCCNC(=N)N)NC(=O)[C@H](CCCNC(=N)N)NC1=O [Ex. 6] (cyclo(YR[Cit]VRRR[2Nal]VY[Cit]K[dP]P))	0.6	103	1930				
CC(C)[C@@H]1NC(=O)[C@H](Cc2ccc3ccccc3c2)NC(=O)[C@H](CCCNC(=N)N)NC(=O)[C@H](CCCNC(=N)N)NC(=O)[C@H]2CCCN2C(=O)[C@H](Cc2ccccc2)NC(=O)[C@H](CCCNC(=N)N)NC(=O)[C@H](Cc2ccccc2)NC(=O)[C@H](CCCNC(N)=O)NC(=O)[C@H](CCCNC(=N)N)NC(=O)[C@H](Cc2ccc(O)cc2)NC(=O)[C@@H]2CCCN2C(=O)[C@H]2CCCN2C(=O)[C@H](CCCCN)NC(=O)[C@H](CCCNC(N)=O)NC(=O)[C@H](Cc2ccc(O)cc2)NC1=O [compound 23] (cyclo(YR[Cit]FRF[dP]RR[2Nal]VY[Cit]K[dP]P))	1.4	49	1550				
N=C(N)NCCC[C@@H]1NC(=O)[C@H](CCCNC(=N)N)NC(=O)[C@H](Cc2ccccc2)NC(=O)[C@H](CCCNC(N)=O)NC(=O)[C@H](CCCNC(=N)N)NC(=O)[C@H](Cc2ccc(O)cc2)NC(=O)[C@@H]2CCCN2C(=O)[C@H]2CCCN2C(=O)[C@H](CCCCN)NC(=O)[C@H](CCCNC(N)=O)NC(=O)[C@H](Cc2ccc(O)cc2)NC(=O)[C@H](Cc2ccccc2)NC(=O)[C@H](Cc2ccc3ccccc3c2)NC(=O)[C@H](CCCNC(=N)N)NC1=O [compound 3] (cyclo(YR[Cit]FRRR[2Nal]FY[Cit]K[dP]P))	1.7	126	1000				
CC(C)[C@@H]1NC(=O)[C@H](Cc2ccc3ccccc3c2)NC(=O)[C@H](CCCNC(=N)N)NC(=O)[C@H](CCCNC(=N)N)NC(=O)[C@@H]2CCCN2C(=O)[C@H](C(C)C)NC(=O)[C@H](CCCNC(=N)N)NC(=O)[C@H](Cc2ccccc2)NC(=O)[C@H](CCCNC(N)=O)NC(=O)[C@H](CCCNC(=N)N)NC(=O)[C@H](Cc2ccc(O)cc2)NC(=O)[C@@H]2CCCN2C(=O)[C@H]2CCCN2C(=O)[C@H](CCCCN)NC(=O)[C@H](CCCNC(N)=O)NC(=O)[C@H](Cc2ccc(O)cc2)NC1=O [compound 22] (cyclo(YR[Cit]FRVPRR[2Nal]VY[Cit]K[dP]P))	0	139	300				
CC(C)[C@@H]1NC(=O)[C@H](Cc2ccc3ccccc3c2)NC(=O)[C@H](CCCNC(=N)N)NC(=O)[C@@H](CCCNC(=N)N)NC(=O)[C@H](CCCNC(=N)N)NC(=O)[C@H](C(C)C)NC(=O)[C@H](CCCNC(N)=O)NC(=O)[C@H](CCCNC(=N)N)NC(=O)[C@H](Cc2ccc(O)cc2)NC(=O)[C@@H]2CCCN2C(=O)[C@H]2CCCN2C(=O)[C@H](CCCCN)NC(=O)[C@H](CCCNC(N)=O)NC(=O)[C@H](Cc2ccc(O)cc2)NC1=O [compound 2] (cyclo(YR[Cit]VR[dR]R[2Nal]VY[Cit]K[dP]P))	0.9	97	2830				
CC(C)[C@@H]1NC(=O)[C@H](CCCNC(N)=O)NC(=O)[C@H](CCCNC(=N)N)NC(=O)[C@H](Cc2ccc(O)cc2)NC(=O)[C@@H]2CCCN2C(=O)[C@H]2CCCN2C(=O)[C@H](CCCCN)NC(=O)[C@H](CCCNC(N)=O)NC(=O)[C@H](Cc2ccc(O)cc2)NC(=O)[C@H](Cc2ccccc2)NC(=O)[C@H](Cc2ccc3ccccc3c2)NC(=O)[C@H](CCCNC(=N)N)NC(=O)[C@H](CCCNC(=N)N)NC(=O)[C@H](CCCNC(=N)N)NC1=O [compound 4] (cyclo(YR[Cit]VRRR[2Nal]FY[Cit]K[dP]P))	0.7	191	2540				
N=C(N)NCCC[C@@H]1NC(=O)[C@H](Cc2ccccc2)NC(=O)[C@H](CCCNC(N)=O)NC(=O)[C@H](CCCNC(=N)N)NC(=O)[C@H](Cc2ccc(O)cc2)NC(=O)[C@@H]2CCCN2C(=O)[C@H]2CCCN2C(=O)[C@H](CCCCN)NC(=O)[C@H](CCCNC(N)=O)NC(=O)[C@H](Cc2ccc(O)cc2)NC(=O)[C@H](Cc2ccccc2)NC(=O)[C@H](Cc2ccc3ccccc3c2)NC(=O)[C@H](CCCNC(=N)N)NC(=O)[C@H](CCCNC(=N)N)NC(=O)[C@H]2CCCN2C(=O)CNC1=O [compound 38] (cyclo(YR[Cit]FRG[dP]RR[2Nal]FY[Cit]K[dP]P))	0.3	348	720				
CC(C)[C@@H]1NC(=O)[C@H](Cc2ccc3ccccc3c2)NC(=O)[C@H](CCCNC(=N)N)NC(=O)[C@H](CCCNC(=N)N)NC(=O)[C@@H]2CCCN2C(=O)[C@H](CCCNC(N)=O)NC(=O)[C@H](CCCNC(=N)N)NC(=O)[C@H](Cc2ccccc2)NC(=O)[C@H](CCCNC(N)=O)NC(=O)[C@H](CCCNC(=N)N)NC(=O)[C@H](Cc2ccc(O)cc2)NC(=O)[C@@H]2CCCN2C(=O)[C@H]2CCCN2C(=O)[C@H](CCCCN)NC(=O)[C@H](CCCNC(N)=O)NC(=O)[C@H](Cc2ccc(O)cc2)NC1=O [compound 20] (cyclo(YR[Cit]FR[Cit]PRR[2Nal]VY[Cit]K[dP]P))	0.2	85	3730				
CC(C)[C@@H]1NC(=O)[C@H](Cc2ccc3ccccc3c2)NC(=O)[C@H](CCCNC(=N)N)NC(=O)[C@H](CCCNC(=N)N)NC(=O)[C@@H]2CCCN2C(=O)[C@H](Cc2ccccc2)NC(=O)[C@H](CCCNC(=N)N)NC(=O)[C@H](Cc2ccccc2)NC(=O)[C@H](CCCNC(N)=O)NC(=O)[C@H](CCCNC(=N)N)NC(=O)[C@H](Cc2ccc(O)cc2)NC(=O)[C@@H]2CCCN2C(=O)[C@H]2CCCN2C(=O)[C@H](CCCCN)NC(=O)[C@H](CCCNC(N)=O)NC(=O)[C@H](Cc2ccc(O)cc2)NC1=O [compound 24] (cyclo(YR[Cit]FRFPRR[2Nal]VY[Cit]K[dP]P))	0.7	108	850				
N=C(N)NCCC[C@@H]1NC(=O)[C@H](CCCNC(=N)N)NC(=O)[C@H]2CCCN2C(=O)CNC(=O)[C@H](CO)NC(=O)[C@@H]2CSSC[C@H](NC(=O)[C@H](Cc3ccc4ccccc4c3)NC1=O)C(=O)N[C@@H](Cc1ccc(O)cc1)C(=O)N[C@@H](CCC(N)=O)C(=O)N[C@@H](CCCCN)C(=O)N1CCC[C@@H]1C(=O)N1CCC[C@H]1C(=O)N[C@@H](Cc1ccc(O)cc1)C(=O)N[C@@H](CCCNC(=N)N)C(=O)N[C@@H](CCCNC(N)=O)C(=O)N2 [Ex. 101] (cyclo(YR[Cit]CSG[dP]RR[2Nal]CYQK[dP]P); disulfide 4-11)	0.6			> 5	4.12	74	1.28
